# Assay results taken from patent US6326034A, “Natural extracted and synthetic antioxidant compositions” (priority 1999, dated 2001).
# What was measured:
# [1] = β-carotene test (coupled oxidation of β-carotene and linoleic acid), in vitro; conditions: β Carotene test; for antioxidant activity (in words): chromium compounds and their reactants; for EC50 for antioxidant activity of chromium compounds: Table 6
# Protocol: Evaluation of antioxidant activity is based on coupled oxidation of β-carotene and linoleic acid. The technique consists of measuring the consumption of β-carotene as a result of its oxidation process in the reaction mixture. The β-carotene-linoleic acid method has been reported as an efficient technique to detect and evaluate antioxidants from plants and from other sources by several investigation groups. Ten milligram of β-carotene were dissolved in 10 ml chloroform and 0.6 ml of the solution was added to a round flask that contained 20 mg of linoleic acid and 200 mg of Tween 20. Chloroform was removed by evaporation, and 50 ml of distilled water were slowly added to the flask with vigorous agitation to form an emulsion. Two milliliters of the emulsion were added to 1 ml of the examined antioxidant solution. The tubes were placed in a water bath at 50° C. and absorbance measurements were made at 30 minutes intervals [M. S. Taga et al., J. Am. Oil Chem. Soc. 61: 928-931, 1984]. […]
# [2] = FRAP assay (ferric reducing/antioxidant power), in vitro
Molecule,antioxidant activity (in words) [1],EC50 for antioxidant activity of chromium compounds [1],other results
"N[C@@H](CS)C(=O)O [Cysteine, cysteine, reference compound]",no antioxidant activity,,
Chromium N-Acetyl Cysteine [Cr-NAC],dose dependent antioxidant activity,2.7 × 10^-7 mg Cr/ml,
"[Cl][Cr]([Cl])[Cl] [CrCl3, chromium chloride, reference compound]",relatively much lower antioxidant effect,7.2 × 10^-4 mg Cr/ml,"antioxidant activity (in words) ([2]; chromium compounds, FRAP, all concentrations used): inactive"
Chromium-Glutathione [Cr-GSH],dose dependent antioxidant activity,2.7 × 10^-7 mg Cr/ml,
"CC(=O)[O-].CC(=O)[O-].CC(=O)[O-].[Cr+3] [Cr Acetate, chromium acetate, reference compound]",lacks any antioxidant activity,,
Chromium Cysteine [Cr-Cys],the most active complex,7.8 × 10^-8 mg Cr/ml,"antioxidant activity (in words) ([1]; listed as Cr-cysteine): dose dependent antioxidant activity; fold more active than cysteine ([2]; at equal concentrations of cysteine, FIG. 27): 2.5 fold"
Chromium-Cystine,did not show any antioxidant activity,,
"CC(=O)N[C@@H](CS)C(=O)O [NAC, N-acetyl cysteine, reference compound]",lower activity,,
"N[C@@H](CCC(=O)N[C@@H](CS)C(=O)NCC(=O)O)C(=O)O [Glutathione, glutathione, reference compound]",lower activity,,
"O=S(=O)([O-])[O-].O=S(=O)([O-])[O-].O=S(=O)([O-])[O-].[Cr+3].[Cr+3] [Cr2(SO4)3, chromium sulfate, reference compound]",relatively much lower antioxidant effect,,
